The results in this text go back to patent publication US9233903B2, “Pharmaceutical substances on the basis of mitochondria-addressed antioxidants” (Mitotech SA, priority 2009, dated 2016).

Data set [1] concerns E. coli MG1655 pLUX::PkatG.
Description: (§1) To test pro-oxidant and antioxidant properties of mitochondria-addressed compounds of general formula (I), a method for determining oxidative stress in E. coli cells was developed. For this purpose, a biosensor system was created based on luxAB genes encoding bacterial luciferases to study effect of penetrating ions on oxidative stress in a bacterial cell.
The lux-biosensors were developed on the basis of these inducible promoters.
(§2) All the promoters used in the method, with corresponding regulatory regions, were obtained from the genome of the E. coli K12 MG1655 bacteria by the PCR method with the use of specific synthesized primers. A non-promoter vector with the pBR322 replicon and bla gene responsible for resistance to ampicillin (selective marker) was used as a vector. The promoter region was embedded into the plasmid at the EcoRI-BamHI sites. The lux operon of Ph. luminescens consisting of five genes, luxCDABE, was selected as the lux cassette.
(§3) In the first phase of testing, conditions for oxidative stress induction at which the maximum induction of luminescence occurs, were selected.
For data set [2], the system named is HeLa and normal human diploid fibroblasts. Put plainly: Protection of cells against H2O2-induced death (apoptosis), Hoechst/PI counting. The settings on record: incubation with the cells for 5 to 7 days. It is filed as cell-based.
Protocol: Testing of the antioxidant capacity of the compounds was performed using the methods of cytofluometry and fluorescence microscopy.
In preliminary experiments for each cell culture, the optimal concentration of H2O2 which causes significant (60% to 80%) cell apoptosis with no visible signs of necrosis was selected. To determine the chromatin condensation and fragmentation which occurs in apoptotic cells, the fluorescent dye Hoechst was used. The dye at a concentration of 1 μg/ml was added to live or fixed cells at the end of a 30 min incubation. To determine necrosis, the fluorescent dye propidium iodide (PI) at a concentration of 2 μg/ml was added to non-fixed cells. The percentage of apoptotic and necrotic cells was determined by counting the number of cells with fragmented nuclei and cells permeable to propidium iodide, respectively.
The test system of data set [3] is HeLa cells. Kind of data set: H2O2-induced oxidative stress in cells, DCF-DA cytofluorimetry. It is filed as cell-based, human. The conditions noted are these: incubation for 1 to 5 hours. How it is done:
To measure the level of oxidative stress stimulated by H2O2, cells were stained with fluorescent dye DCF-DA (2′,7′-dichloro-dihydrofluorescein diacetate), and the level of fluorescence of the dye was measured with a cytofluorimeter.
Estimates were made on the basis of seven experiments. Data were estimated with respect to a group of the control cells lying on the diagram in the area of low DCF-DA fluorescence (50% of the population), this group of cells was taken as 100% and indicators for every action were estimated relative to this group.

The subject of data set [4] is gramicidin channels. Put plainly: Protection of gramicidin channels in bilayer membrane, damage by FeSO4, ascorbate and tert-butyl hydroperoxide. It counts as biochemical. The conditions noted are these: FeSO4, ascorbate, tert-butyl hydroperoxide; FIG. 3B. The text has this: A method was developed which allows the study of the antioxidant activity of compounds in a simple system consisting of a bilayer membrane, […]). […]

A short description of data set [5]: Penetrating ability on artificial black (bilayer phospholipid) membranes, membrane potential. It counts as physicochemical. The settings on record: for penetrating ability: bilayer membrane, comparison between compounds; for membrane potential (Δψ) generated: concentration range from 10^−7 to 10^−6 M, FIG. 2B. An excerpt: To test the penetrating ability of mitochondria-addressed compounds of structure (I), a method is used based on the ability of ions to penetrate through the phospholipid membrane bilayer moving along the concentration gradient. […] If a charged substance can penetrate through the bilayer membrane, its rapid diffusion out of the chamber having a high concentration of the substance, to the chamber having a low concentration of the substance, occurs, and thus a membrane potential difference is created. For ions which are carrying one charge and able to easily penetrate through the membrane, a 10-fold concentration gradient allows for creation of a potential of 60 mV (according to the Nernst equation). This method was used in various studies of the ability of ions to pass through the lipid bilayer of the membrane.

Data set [6] concerns mitochondria. Kind of data set: Accumulation in mitochondria measured with tetraphenylphosphonium-selective electrode. It is filed as in vitro ADME. The settings on record: FCCP uncoupler; FIG. 4. How it is done:
The ability of compounds of general formula (I) to accumulate in mitochondria was tested using a tetraphenylphosphonium-selective electrode. The method is used for compounds of general formula (I) in which the lipophilic cation tetraphenylphosphonium is used as the target group. With this electrode, it is possible to measure distribution of tetraphenylphosphonium cation (or compounds which comprise this cation) between the mitochondrial matrix and the medium.

The nature of data set [7]: Solubility in aqueous solutions.
For data set [8], the system named is E. coli MG1655 pLUX::PsoxS. It is filed as cell-based.
Description: as §1
The PsoxS promoter is activated when superoxide ion-radical appears in the environment. The lux-biosensors were developed on the basis of these inducible promoters.
as §2, §3
Data set [9] deals with gramicidin channels. Kind of data set: Protection of gramicidin channels in bilayer membrane, damage by photoactivated phthalocyanine. It counts as biochemical. The conditions noted are these: photoactivation of phthalocyanine; FIG. 3A. The text has this: A method was developed which allows the study of the antioxidant activity of compounds in a simple system consisting of a bilayer membrane, a conducting protein gramicidin and a photosensitizer (Mito Tracker Red, Invitrogen, Carlsbad, Calif.), thrice sulfonated aluminum phthalocyanine or zinc phthalocyanine). The method uses the ability of reactive oxygen species generated by photoactivation of the photosensitizer molecules to damage gramicidin channels, resulting in a sharp decrease in the conducting ability of the bilayer membrane.

A value given as a limit tells only on which side of the number the result lay.

With `OO` [Compound H2O2, hydrogen peroxide], in data set [1] (FIG. 10A), the “time at which induction of luminescence becomes evident” value was at most 15 min and the “time to maximum luminescence” value is “one hour”. In addition, the “ratio of luminescence intensity between control cells and induced cells” value in data set [1] (optimal concentrations of H2O2) is 1/80.

Take `COC1=C(OC)C(=O)C(CCCCCCCCCC[P+](c2ccccc2)(c2ccccc2)c2ccccc2)=C(C)C1=O` [MitoQ]: the “resistance of cells to H2O2” value in data set [2] is reported as “increase resistance of cells to H2O2”. Also, the “effect on H2O2-induced oxidative stress in cells” value in data set [3] was “did not prevent”. In addition, the “antioxidant efficiency, protection of gramicidin channels” value in data set [4] is “less efficient antioxidants”. For the same molecule, the penetrating ability entry in data set [5] was “less penetrating abilities compared to SkQ3 or SkQR1”.

With `CC1=C(C)C(=O)C(CCCCCCCCCC[P+](c2ccccc2)(c2ccccc2)c2ccccc2)=CC1=O` [SkQ1, [10-(4,5-dimethyl-3,6-dioxo-cyclohexa-1,4-dien-1-yl)decyl]-triphenylphosphonium bromide], the “energy-independent accumulation in mitochondria” value in data set [6] was “independent of the degree of energization of the mitochondria”.

Turning to `CC1=C(C)C(=O)C(CCCCCCCCCC[P+](c2ccccc2)(c2ccccc2)c2ccccc2)=C(C)C1=O` [SkQ3], the “antioxidant efficiency, protection of gramicidin channels” value in [4] was “less efficient antioxidants”.

In the case of `CC1=C(C)C(=O)C(CCCCC[P+](c2ccccc2)(c2ccccc2)c2ccccc2)=CC1=O` [SkQ5], the “energy-independent accumulation in mitochondria” value in data set [6] was “reduced”.

For `COc1ccc2c(CC(=O)OCCCCCCCC3=CC(=O)C(C)=C(C)C3=O)c3[n+](cc2c1OC)CCc1cc2c(cc1-3)OCO2` [SkQB1, 13-[7-(4,5-dimethyl-3,6-dioxo-cyclohexa-1,4-dien-1-yl)heptyloxycarbonyl-methyl]berberine], the “solubility in aqueous solutions” value in [7] is “poor solubility”. For the same molecule, in data set [5], the “membrane potential (Δψ) generated” value is reported as “almost the same Δψ as SkQ1”.

For `COc1cc2c(cc1OC)-c1c(CC(=O)OCCCCCCCC3=CC(=O)C(C)=C(C)C3=O)c3ccc(OC)c(OC)c3c[n+]1CC2` [SkQBP1, 13-[7-(4,5-dimethyl-3,6-dioxo-cyclohexa-1,4-dien-1-yl)heptyloxycarbonyl-methyl]palmatine], the “membrane potential (Δψ) generated” value in data set [5] is given as “almost the same Δψ as SkQ1”.

Take `CC/N=c1/cc2oc3cc(NCC)c(C)cc3c(-c3ccccc3C(=O)OCCCCCCCCCCC3=CC(=O)C(C)=C(C)C3=O)c-2cc1C` [SkQR1]: the “effect on H2O2-induced oxidative stress in cells” value in data set [3] was “has antioxidant activity”. Also, the “concentration above which compound ceases to obey the Nernst equation (membrane damage)” value in data set [5] (FIG. 2A) is on record as “higher than 5×10^−5 M”. Further, in data set [5], the penetrating ability result was “higher penetrating ability”.

As for `C[n+]1ccc(-c2cc[n+](C)cc2)cc1` [paraquat], in data set [8] (FIG. 10B), the “time at which induction of luminescence becomes evident” value was 15 to 20 min and the “time to maximum luminescence” value is listed as “two hours”. For the same molecule, in data set [8] (optimal concentrations of paraquat), the “ratio of luminescence intensity between control cells and induced cells” value is 1/100.

On to superoxide dismutase, for which the “prevention of fall in membrane conductance (gramicidin channels)” value in data set [9] is “effectively blocked”.
